Experimental data reported in PubChem BioAssay AID248 (DTP/NCI, 2004).
Values joined by “and” are separate entries in the source; they are usually repeats but may differ in a detail not shown here. Identical values can stand only once. Inconclusive results and toxic doses are left out.

System: L1210 leukemia ip in BDF1 mice, survival T/C
Assay: NCI In Vivo Anticancer Drug Screen. Data for tumor model L1210 Leukemia (intraperitoneal) in B6D2F1 (BDF1) mice
Settings: endpoint: mean survival time, higher = longer survival
Outline: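 In this screen, tumor-bearing mice given compound are compared to those given vehicle, and their survival values are reported as a treated-to-control quotient.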

[1] = dose: 100.0 mg/kg/injection, schedule: Q01DX001 (ip), vehicle: saline with Tween-80
[2] = dose: 200.0 mg/kg/injection, schedule: Q01DX001 (ip), vehicle: saline with Tween-80
[3] = dose: 100.0 mg/kg/injection, schedule: Q04DX002 (ip), vehicle: Klucel (hydroxypropylcellulose) (HPC)
[4] = dose: 200.0 mg/kg/injection, schedule: Q04DX002 (ip), vehicle: Klucel (hydroxypropylcellulose) (HPC)
[5] = dose: 400.0 mg/kg/injection, schedule: Q04DX002 (ip), vehicle: Klucel (hydroxypropylcellulose) (HPC)
[6] = dose: 100.0 mg/kg/injection, schedule: Q04DX003 (ip), vehicle: Klucel (hydroxypropylcellulose) (HPC)
[7] = dose: 200.0 mg/kg/injection, schedule: Q04DX003 (ip), vehicle: Klucel (hydroxypropylcellulose) (HPC)
[8] = dose: 400.0 mg/kg/injection, schedule: Q04DX003 (ip), vehicle: Klucel (hydroxypropylcellulose) (HPC)
[9] = dose: 100.0 mg/kg/injection, schedule: Q01DX001 (ip), vehicle: Klucel (hydroxypropylcellulose) (HPC)
[10] = dose: 200.0 mg/kg/injection, schedule: Q01DX001 (ip), vehicle: Klucel (hydroxypropylcellulose) (HPC)
[11] = dose: 100.0 mg/kg/injection, schedule: Q04DX003 (ip), vehicle: saline with Tween-80
[12] = dose: 75.0 mg/kg/injection, schedule: Q01DX001 (ip), vehicle: saline
[13] = dose: 150.0 mg/kg/injection, schedule: Q01DX001 (ip), vehicle: saline

NC1=C(Sc2ccccc2)C(=O)c2ccccc2C1=O
T/C [1]: 105 % of control | T/C [2]: 94 % of control | T/C (dose: 400.0 mg/kg/injection, schedule: Q01DX001 (ip), vehicle: saline with Tween-80): 94 % of control

[O-]/[N+](=C\c1cccc(O)c1)c1ccccc1
T/C (dose: 50.0 mg/kg/injection, schedule: Q01DX001 (ip), vehicle: saline): 102 % of control | T/C (dose: 100.0 mg/kg/injection, schedule: Q01DX001 (ip), vehicle: saline): 106 % of control | T/C (dose: 200.0 mg/kg/injection, schedule: Q01DX001 (ip), vehicle: saline): 102 % of control | T/C (dose: 400.0 mg/kg/injection, schedule: Q01DX001 (ip), vehicle: saline): 100 % of control

CCCCCCCCCC(=O)N/N=C/c1cccnc1
T/C (dose: 100.0 mg/kg/injection, schedule: Q01DX009 (ip), vehicle: other): 96 % of control | T/C (dose: 200.0 mg/kg/injection, schedule: Q01DX009 (ip), vehicle: other): 86 % of control | T/C (dose: 400.0 mg/kg/injection, schedule: Q01DX009 (ip), vehicle: other): 86 % of control

COc1ccc(NC(=O)Nc2cc([N+](=O)[O-])ccc2C)c(OC)c1
T/C [3]: 92 % of control | T/C [4]: 108 % of control | T/C [5]: 92 % of control

Cn1ncc(=O)n(C)c1=O
T/C (dose: 50.0 mg/kg/injection, schedule: Q01DX009 (ip), vehicle: saline): 97 % of control | T/C (dose: 100.0 mg/kg/injection, schedule: Q01DX009 (ip), vehicle: saline): 97 % of control | T/C (dose: 200.0 mg/kg/injection, schedule: Q01DX009 (ip), vehicle: saline): 93 % of control

N#CC(=C(c1ccccc1)c1ccccc1)c1ccccc1
T/C [6]: 108 % of control | T/C [7]: 108 % of control | T/C [8]: 106 % of control

CCCCNC(=O)Nc1ccccc1C(N)=O
T/C (dose: 100.0 mg/kg/injection, schedule: Q01DX009 (ip), vehicle: Klucel (hydroxypropylcellulose) (HPC)): 97 % of control | T/C [6]: 98 % of control | T/C (dose: 200.0 mg/kg/injection, schedule: Q01DX009 (ip), vehicle: Klucel (hydroxypropylcellulose) (HPC)): 95 % of control | T/C [7]: 94 % of control | T/C (dose: 400.0 mg/kg/injection, schedule: Q01DX009 (ip), vehicle: Klucel (hydroxypropylcellulose) (HPC)): 105 % of control | T/C [8]: 96 % of control

CC[C@@H]1O[C@@H]([C@@H]2CC[C@](O)([C@]3(C)CC[C@@H]([C@@H](C)[C@@]4(O)CC[C@H](C)[C@@H](C[C@@]5(O)O[C@@H]([C@@H](C)[C@H](O)C[C@H]6CC[C@H](C)[C@@H]([C@@H](C)C(=O)O)O6)CC[C@@H]5C)O4)O3)O2)CC[C@@]1(C)O
T/C (dose: 0.09 mg/kg/injection, schedule: Q04DX002 (ip), vehicle: saline): 93 % of control | T/C (dose: 0.19 mg/kg/injection, schedule: Q04DX002 (ip), vehicle: saline): 90 % of control | T/C (dose: 0.39 mg/kg/injection, schedule: Q04DX002 (ip), vehicle: saline): 87 % of control

CCCCCCCCCC(=O)N1CCCC(C)C1 (configuration not stated)
T/C (dose: 50.0 mg/kg/injection, schedule: Q01DX001 (ip), vehicle: carboxymethylcellulose (CMC)): 100 % of control | T/C (dose: 50.0 mg/kg/injection, schedule: Q01DX009 (ip), vehicle: carboxymethylcellulose (CMC)): 94 % of control | T/C (dose: 50.0 mg/kg/injection, schedule: Q04DX003 (ip), vehicle: carboxymethylcellulose (CMC)): 101 % of control | T/C (dose: 100.0 mg/kg/injection, schedule: Q01DX001 (ip), vehicle: carboxymethylcellulose (CMC)): 98 % of control | T/C (dose: 100.0 mg/kg/injection, schedule: Q01DX009 (ip), vehicle: carboxymethylcellulose (CMC)): 90 % of control and 91 % of control | T/C (dose: 100.0 mg/kg/injection, schedule: Q04DX002 (ip), vehicle: carboxymethylcellulose (CMC)): 93 % of control and 95 % of control | T/C (dose: 100.0 mg/kg/injection, schedule: Q04DX003 (ip), vehicle: carboxymethylcellulose (CMC)): 95 % of control | T/C (dose: 200.0 mg/kg/injection, schedule: Q01DX001 (ip), vehicle: carboxymethylcellulose (CMC)): 94 % of control | T/C (dose: 200.0 mg/kg/injection, schedule: Q01DX009 (ip), vehicle: carboxymethylcellulose (CMC)): 89 % of control | T/C (dose: 200.0 mg/kg/injection, schedule: Q04DX002 (ip), vehicle: carboxymethylcellulose (CMC)): 101 % of control and 103 % of control | T/C (dose: 200.0 mg/kg/injection, schedule: Q04DX003 (ip), vehicle: carboxymethylcellulose (CMC)): 97 % of control | T/C (dose: 400.0 mg/kg/injection, schedule: Q04DX002 (ip), vehicle: carboxymethylcellulose (CMC)): 92 % of control

CCN(CC)C(=O)CBr
T/C (dose: 50.0 mg/kg/injection, schedule: Q01DX001 (ip), vehicle: Klucel (hydroxypropylcellulose) (HPC)): 99 % of control | T/C [9]: 99 % of control | T/C [10]: 97 % of control

S=C(N/N=C/c1ccccn1)N/N=C/c1ccccn1
T/C (dose: 20.0 mg/kg/injection, schedule: Q01DX009 (ip), vehicle: saline with Tween-80): 105 % of control | T/C (dose: 33.0 mg/kg/injection, schedule: Q01DX009 (ip), vehicle: saline with Tween-80): 100 % of control | T/C (dose: 50.0 mg/kg/injection, schedule: Q01DX009 (ip), vehicle: saline with Tween-80): 152 % of control | T/C [11]: 103 % of control

Nc1ncnc(N)c1NC(=O)c1cc(OCc2ccccc2)cc(OCc2ccccc2)c1
T/C (dose: 100.0 mg/kg/injection, schedule: Q04DX003 (ip), vehicle: DMSO): 94 % of control | T/C (dose: 200.0 mg/kg/injection, schedule: Q04DX003 (ip), vehicle: DMSO): 102 % of control | T/C (dose: 400.0 mg/kg/injection, schedule: Q04DX003 (ip), vehicle: DMSO): 86 % of control

Cc1ccnc(NS(=O)(=O)c2ccc(N=NC3SC(=S)NC3=O)cc2)n1 (configuration not stated)
T/C [12]: 100 % of control | T/C [13]: 101 % of control | T/C (dose: 300.0 mg/kg/injection, schedule: Q01DX001 (ip), vehicle: saline): 98 % of control

COC(=O)C1(C)CCCC2(C)C1CCC13CCC(C)(CCC21)C3O (configuration not stated)
T/C [3]: 103 % of control | T/C [4]: 92 % of control | T/C [5]: 92 % of control

NC(=O)C/C=C/CC(N)=O
T/C [6]: 102 % of control | T/C [7]: 102 % of control | T/C [8]: 102 % of control

Oc1ccc(Nc2ncnc3nc[nH]c23)cc1O
T/C [11]: 101 % of control | T/C (dose: 200.0 mg/kg/injection, schedule: Q04DX003 (ip), vehicle: saline with Tween-80): 89 % of control | T/C (dose: 400.0 mg/kg/injection, schedule: Q04DX003 (ip), vehicle: saline with Tween-80): 100 % of control

c1ccc(N=C2C3CCN(CC3)C2C(c2ccccc2)c2ccccc2)cc1 (configuration not stated)
T/C [6]: 97 % of control | T/C [7]: 94 % of control | T/C [8]: 95 % of control

Cc1ccccc1SC(Sc1ccccc1C)(Sc1ccccc1C)Sc1ccccc1C
T/C [9]: 98 % of control | T/C [10]: 88 % of control | T/C (dose: 400.0 mg/kg/injection, schedule: Q01DX001 (ip), vehicle: Klucel (hydroxypropylcellulose) (HPC)): 95 % of control

O=[N+]([O-])C(=C\c1ccccc1)/C(=C(/Br)[N+](=O)[O-])c1ccccc1
T/C [12]: 95 % of control | T/C [13]: 92 % of control

CC(=O)OCN1C(=O)C2C3CCC(O3)C2C1=O (configuration not stated)
T/C (dose: 25.0 mg/kg/injection, schedule: Q04DX003 (ip), vehicle: saline with Tween-80): 104 % of control | T/C (dose: 50.0 mg/kg/injection, schedule: Q04DX003 (ip), vehicle: saline with Tween-80): 98 % of control | T/C [1]: 106 % of control | T/C [11]: 95 % of control and 104 % of control | T/C [2]: 98 % of control

COc1ccc2c(c1)CCCN2CCC#N
T/C (dose: 50.0 mg/kg/injection, schedule: Q04DX003 (ip), vehicle: other): 106 % of control | T/C (dose: 100.0 mg/kg/injection, schedule: Q04DX003 (ip), vehicle: other): 92 % of control | T/C (dose: 200.0 mg/kg/injection, schedule: Q04DX003 (ip), vehicle: other): 108 % of control | T/C (dose: 400.0 mg/kg/injection, schedule: Q04DX003 (ip), vehicle: other): 99 % of control

O=C(OCCCCCCCCOC(=O)c1cccc([N+](=O)[O-])c1)c1cccc([N+](=O)[O-])c1
T/C (dose: 100.0 mg/kg/injection, schedule: Q01DX001 (ip), vehicle: other): 102 % of control | T/C (dose: 200.0 mg/kg/injection, schedule: Q01DX001 (ip), vehicle: other): 101 % of control | T/C (dose: 400.0 mg/kg/injection, schedule: Q01DX001 (ip), vehicle: other): 96 % of control
